Laboratory results published in patent publication US11047012B2, “Method for detecting the risk and prognosis of adult-onset Still's disease” (Taichung Veterans General Hospital, priority 2018, dated 2021).

How the values were obtained:
[1] = tested on: THP-1 cells; assay: poly (I:C) stimulation of THP-1 cells, miR-134 expression; format: cell-based, human; details: 24 hours after stimulation, FIG. 5B
Description: (§1) The miRNA expressions in a sample were detected using the TaqMan MicroRNA detection kit (Applied Biosystems, Thermo Fisher Scientific, USA) and QRT-PCR was performed in the StepOne Plus real-time PCR system. Small nuclear RNA (hereinafter referred to as RUN6) and synthetic cel-miR-39 (hereinafter referred to as cel-miR-39 cel-miR-39) were respectively used as an internal control gene in cells and plasma. The multiple expression of the target gene was obtained by calculating the average expression of the target gene relative to the internal control gene in the sample by comparative threshold cycle (Ct) method, and evaluated by 2^−ΔΔCt, where ΔΔCt is the (CtmiRNAsgene−CtRnu6/cel-miR-39) of the patient from which the average (CtmiRNAs gene−CtRnu6/cel-miR-39) of the internal control gene is subtracted.
(§2) Peripheral blood mononuclear cells, human monocyte cell line U937 (ATCC CRL1593, hereinafter referred to as U937 cell) and THP-1 cells (ATCC TIB-202) isolated from the subject were respectively cultured in RPMI medium 1640 (Gibco, Thermo Fisher Scientific, USA) supplemented with 10% fetal bovine serum, 1× non-essential amino acids, 100 unit/ml penicillin and 100 unit/ml streptomycin in 5% carbon dioxide at 37° C.
Further, the THP-1 cells were treated with the TLR3 ligand poly (I:C).

[2] = tested on: peripheral blood mononuclear cells derived from the patients with AOSD; assay: TLR ligand stimulation of peripheral blood mononuclear cells, intracellular miR-134 by QRT-PCR; format: cell-based, human
Description: as §1, §2
Peripheral blood mononuclear cells (5×10^5 cells) derived from the subjects were stimulated with different TLR ligands. Finally, the intracellular expression level of miR-134 was measured with the TaqMan MicroRNA test kit.
Following the process as described in Example 8, the intracellular expressions of miR-134 and IL-18BP mRNA in the TLR3 ligand-stimulated peripheral blood mononuclear cells derived from patients with AOSD and healthy subjects were detected. The correlation between the IL-18BP and IL-18 expressions and the miR-134 expression was analyzed.

polyriboinosinic:polyribocytidylic acid [poly(I:C)]
expression of miR-134 (highest value) [1]: 1.92±0.11 folds | miR-134 expression level in the cells ([2]; PBMC from patients with AOSD, TLR3 ligand poly(I:C) 50 μg/ml, FIG. 5A): 3.81±0.09 folds | expression level of miR-134 ([2]; TLR3 ligand-stimulated PBMC from patients with AOSD, FIG. 10A): increased | expression level of IL-18BP mRNA ([2]; TLR3 ligand-stimulated PBMC from patients with AOSD, FIG. 10B): reduced
